# Reference: patent US8163727B2, “Biphenyloxyacetic acid derivatives for the treatment of respiratory disease” (AstraZeneca AB, priority 2004, dated 2012)
# Experiments:
# [1] = biological target: T1, CRTh2 (Homo sapiens, UniProt Q9Y5Y4); assay: Ligand binding assay ([3H]PGD2 SPA on membranes of HEK cells expressing rhCRTh2/Gα16); details: [3H]PGD2 displacement, HEK cell membranes containing CRTh2; read-out: pIC50 value (converted)
# T1 construct: expressed in transfected cells; host or cells: HEK cells (membrane preparation)
# T1 sequence (Q9Y5Y4 1-395): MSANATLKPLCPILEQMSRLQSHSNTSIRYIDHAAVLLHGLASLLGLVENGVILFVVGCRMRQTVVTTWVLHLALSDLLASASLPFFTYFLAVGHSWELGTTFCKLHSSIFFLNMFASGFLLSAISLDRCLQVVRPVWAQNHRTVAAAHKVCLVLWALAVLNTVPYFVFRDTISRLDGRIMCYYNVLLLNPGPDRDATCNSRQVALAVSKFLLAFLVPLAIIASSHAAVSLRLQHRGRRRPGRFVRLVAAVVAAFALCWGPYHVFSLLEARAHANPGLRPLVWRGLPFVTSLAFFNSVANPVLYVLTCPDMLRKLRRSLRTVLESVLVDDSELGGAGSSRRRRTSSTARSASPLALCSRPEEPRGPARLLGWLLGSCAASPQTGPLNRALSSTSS
# Description: [^3H]PGD2 was purchased from Perkin Elmer Life Sciences with a specific activity of 100-210 Ci/mmol. All other chemicals were of analytical grade.
# HEK cells expressing rhCRTh2/Gα16 were routinely maintained in DMEM containing 10% Foetal Bovine Serum (HyClone), 1 mg/ml geneticin, 2 mM L-glutamine and 1% non-essential amino acids. For the preparation of membranes, the adherent transfected HEKcells were grown to confluence in two layer tissue culture factories (Fisher, catalogue number TKT-170-070E). Maximal levels of receptor expression were induced by addition of […] sodium butyrate for the last 18 hours of culture. The adherent cells were washed once with phosphate buffered saline (PBS, 50 ml per cell factory) and detached by the addition of 50 ml per cell factory of ice-cold membrane homogenisation buffer [20 mM HEPES (pH 7.4), 0.1 mM dithiothreitol, 1 mM EDTA, 0.1 mM phenyl methyl sulphonyl fluoride and 100 μg/ml bacitracin]. Cells were pelleted by centrifugation at 220×g for 10 minutes at 4° C., re-suspended in half the original volume of fresh membrane homogenisation buffer and disrupted using a Polytron homogeniser for 2×20 second bursts keeping the tube in ice at all times. […] The final pellet was re-suspended in 4 ml of membrane homogenisation buffer per cell factory used and the protein content determined. […]
# All assays were performed in Corning clear bottomed, white 96-well NBS plates (Fisher). […] (The optimum coating concentrations were determined for each batch of membranes) The beads were pelleted by centrifugation (800×g for 7 minutes at 4° C.), washed once with assay buffer (50 mM HEPES pH 7.4 containing 5 mM magnesium chloride) and finally re-suspended in assay buffer at a bead concentration of 10 mg/ml. […]
# Compounds and DK-PGD2 were dissolved in DMSO and diluted in the same solvent to 100× the required final concentration. […] The assay plate was incubated at room temperature for 2 hours and counted on a Wallac Microbeta liquid scintillation counter (1 minute per well).
Structure (SMILES),IC50 [1],melting point
C[C@H](Oc1ccc(Cl)cc1-c1cc(F)c(S(=O)(=O)N2CCOCC2)cc1F)C(=O)O [Example 5],1.78 nM,–
"CC(C)S(=O)(=O)c1ccc(-c2cc(C(F)(F)F)ccc2OCC(=O)O)cc1F [Example 6, [[3′-Fluoro-4′-[(1-methylethyl)sulfonyl]-5-(trifluoromethyl)[1,1′-biphenyl]-2-yl]oxy]acetic acid]",–,170 to 171 °C
"CCS(=O)(=O)c1ccc(-c2cc(C(F)(F)F)ccc2OCC(=O)O)cc1C(F)(F)F [Example 9, [[4′-(Ethylsulfonyl)-3′,5-bis(trifluoromethyl)[1,1′-biphenyl]-2-yl]oxy]acetic acid]",–,174 to 175 °C
O=C(O)COc1ccc(Cl)cc1-c1ccc(S(=O)(=O)N2CCOCC2)c(C(F)(F)F)c1 [Example 11],35.5 nM,208 to 209 °C
"O=C(O)COc1ccc(Cl)cc1-c1ccc(C(=O)N2CCCC2)c(C(F)(F)F)c1 [Example 13, [[5-Chloro-4′(1-pyrrolidinylcarbonyl)-3′-(trifluoromethyl)[1,1′-biphenyl]-2-yl]oxy]-acetic acid]",7.08 nM,197 to 198 °C
"C[C@H](Oc1ccc(Cl)cc1-c1ccc(C(=O)N2CCCC2)c(C(F)(F)F)c1)C(=O)O [Example 14, (2S)-2-[[5-Chloro-4′-(1-pyrrolidinylcarbonyl)-3′-(trifluoromethyl)[1,1′-biphenyl]-2-yl]oxy]propanoic acid]",–,164 to 165 °C

# Second part, the compound after the results:
IC50 [1],melting point,Structure (SMILES)
–,124 to 126 °C,"CCS(=O)(=O)c1ccc(-c2cc(C(F)(F)F)ccc2O[C@@H](C)C(=O)O)cc1C(F)(F)F [Example 10, (2S)-2-[[4′-(Ethylsulfonyl)-3′,5-bis(trifluoromethyl)[1,1′-biphenyl]-2-yl]oxy]propanoic acid]"
–,148 to 149 °C,"C[C@H](Oc1ccc(Cl)cc1-c1ccc(S(=O)(=O)N2CCOCC2)c(C(F)(F)F)c1)C(=O)O [Example 12, (2S)-2-[[5-Chloro-4′-(4-morpholinylsulfonyl)-3′-(trifluoromethyl)[1,1′-biphenyl]-2-yl]oxy]propanoic acid]"
–,77 to 79 °C,"C[C@H](Oc1ccc(Cl)cc1-c1ccc(S(C)(=O)=O)c(C(F)(F)F)c1)C(=O)O [Example 16, (2S)-2-[[5-Chloro-4′-(methylsulfonyl)-(3′-trifluoromethyl)-[1,1′-biphenyl]-2-yl]oxy]propanoic acid]"
